Source: patent US4882313A, “Carboxamide derivatives of glycopeptides” (SmithKline Beckman Corporation, priority 1987, dated 1989)

Assays:
[1] = pI (analytical data, Table 2); type: physicochemical
Description: Using substantially the procedures of both Examples 1 and 2, the compounds of Examples 3-15 were obtained by using the appropriate glycopeptide and amine starting materials.

[2] = system: Staphylococcus epidermidis; test: standard microtiter assay, minimum inhibitory concentration; type: cell-based; design: minimum inhibitory concentration of antibiotic, Test Organism 8: unit not given here; settings: for minimum inhibitory concentration of antibiotic, Test Organism 6: Test Organism 6, strain of Staphylococcus epidermidis; for minimum inhibitory concentration of antibiotic, Test Organism 11: Test Organism 11, strain of Staphylococcus epidermidis; for minimum inhibitory concentration of antibiotic, Test Organism 13: Test Organism 13, strain of Staphylococcus epidermidis; for minimum inhibitory concentration of antibiotic, Test Organism 14: Test Organism 14, strain of Staphylococcus epidermidis; for minimum inhibitory concentration of antibiotic, Test Organism 8: Test Organism 8, strain of Staphylococcus epidermidis
Description: (§1) Representative results of standard microtiter assays are reported in Table 1 which follows, as the minimum inhibitory concentration of antibiotic (mg/ml). In Table 1, test organisms 1-5 were different strains of Staphylococcus aureus; 6, 8, 11, 13 and 14 were different strains of Staphylococcus epidermidis; 7 was a Staphylococcus haemolyticus; 9 and 10 were different strains of Streptococcus faecalis; and 12 was a Staphylococcus saprophyticus.

[3] = system: Staphylococcus haemolyticus; test: as above; type: cell-based; settings: Test Organism 7, Staphylococcus haemolyticus
Description: as §1

Staphylococcus aureus = test: as above; type: cell-based; settings: for minimum inhibitory concentration of antibiotic, Test Organism 1: Test Organism 1, strain of Staphylococcus aureus; for minimum inhibitory concentration of antibiotic, Test Organism 2: Test Organism 2, strain of Staphylococcus aureus; for minimum inhibitory concentration of antibiotic, Test Organism 3: Test Organism 3, strain of Staphylococcus aureus; for minimum inhibitory concentration of antibiotic, Test Organism 4: Test Organism 4, strain of Staphylococcus aureus; for minimum inhibitory concentration of antibiotic, Test Organism 5: Test Organism 5, strain of Staphylococcus aureus
Description: as §1

Streptococcus faecalis = test: as above; type: cell-based; settings: for minimum inhibitory concentration of antibiotic, Test Organism 9: Test Organism 9, strain of Streptococcus faecalis; for minimum inhibitory concentration of antibiotic, Test Organism 10: Test Organism 10, strain of Streptococcus faecalis
Description: as §1

[4] = system: Staphylococcus saprophyticus; test: as above; type: cell-based; settings: Test Organism 12, Staphylococcus saprophyticus
Description: as §1

Structure (SMILES)	pI [1]	minimum inhibitory concentration of antibiotic, Test Organism 6 [2] [mg/mL]	minimum inhibitory concentration of antibiotic, Test Organism 11 [2] [mg/mL]	minimum inhibitory concentration of antibiotic, Test Organism 13 [2] [mg/mL]	minimum inhibitory concentration of antibiotic, Test Organism 14 [2] [mg/mL]	minimum inhibitory concentration of antibiotic, Test Organism 7 [3] [mg/mL]	minimum inhibitory concentration of antibiotic, Test Organism 1 (Staphylococcus aureus) [mg/mL]	minimum inhibitory concentration of antibiotic, Test Organism 2 (Staphylococcus aureus) [mg/mL]	minimum inhibitory concentration of antibiotic, Test Organism 3 (Staphylococcus aureus) [mg/mL]	minimum inhibitory concentration of antibiotic, Test Organism 4 (Staphylococcus aureus) [mg/mL]	minimum inhibitory concentration of antibiotic, Test Organism 5 (Staphylococcus aureus) [mg/mL]	minimum inhibitory concentration of antibiotic, Test Organism 9 (Streptococcus faecalis) [mg/mL]	minimum inhibitory concentration of antibiotic, Test Organism 12 [4] [mg/mL]	minimum inhibitory concentration of antibiotic, Test Organism 8 [2]	minimum inhibitory concentration of antibiotic, Test Organism 10 (Streptococcus faecalis) [mg/mL]
CNC1C(=O)NC2C(=O)NC(C(=O)NC3C(=O)NC4C(=O)NC(C(=O)NC(C(=O)NCCO)c5cc(O)cc(O)c5-c5cc4ccc5O)C(O)c4cc(Cl)c(c(Cl)c4)Oc4cc3cc(c4O)Oc3ccc(cc3Cl)C2O)c2cc(cc(O)c2Cl)Oc2cc1ccc2O (stereo not shown) [Compound 2d, Ardacin aglycone-(2-hydroxyethyl amide)]	7.1	0.4	0.8	0.2	0.4	0.8	0.05	0.05	0.05	0.2	0.2	0.2	0.4	–	–
CNC1C(=O)NC2C(=O)NC(C(=O)NC3C(=O)NC4C(=O)NC(C(=O)NC(C(=O)NCCCCCCN)c5cc(O)cc(O)c5-c5cc4ccc5O)C(O)c4cc(Cl)c(c(Cl)c4)Oc4cc3cc(c4O)Oc3ccc(cc3Cl)C2O)c2cc(cc(O)c2Cl)Oc2cc1ccc2O (stereo not shown) [Compound 2h, Ardacin aglycone-(6-aminohexyl amide)]	7.7	0.1	0.2	0.1	–	0.2	0.1	0.1	0.4	0.1	0.1	0.1	0.2	0.1	0.1
CCCCCCCCCC(=O)NC1C(Oc2c3cc4cc2Oc2c(Cl)cc(cc2Cl)C(O)C2NC(=O)C(NC(=O)C4NC(=O)C4NC(=O)C(NC(=O)C(NC)c5ccc(O)c(c5)Oc5cc(O)c(Cl)c4c5)C(O)c4ccc(c(Cl)c4)O3)c3ccc(O)c(c3)-c3c(OC4OC(CO)C(O)C(O)C4O)cc(O)cc3C(C(=O)NCCN)NC2=O)OC(C(=O)NCCN)C(O)C1O (stereo not shown) [Compound 2m, Ardacin A-di-(2-aminoethylamide)]	8.4	1.6	0.8	0.2	–	0.8	0.1	0.1	0.1	0.8	0.4	0.1	0.4	0.1	0.1

Second part, led by results:

pI [1]	Structure (SMILES)	minimum inhibitory concentration of antibiotic, Test Organism 6 [2] [mg/mL]	minimum inhibitory concentration of antibiotic, Test Organism 11 [2] [mg/mL]	minimum inhibitory concentration of antibiotic, Test Organism 13 [2] [mg/mL]	minimum inhibitory concentration of antibiotic, Test Organism 14 [2] [mg/mL]	minimum inhibitory concentration of antibiotic, Test Organism 7 [3] [mg/mL]	minimum inhibitory concentration of antibiotic, Test Organism 1 (Staphylococcus aureus) [mg/mL]	minimum inhibitory concentration of antibiotic, Test Organism 2 (Staphylococcus aureus) [mg/mL]	minimum inhibitory concentration of antibiotic, Test Organism 3 (Staphylococcus aureus) [mg/mL]	minimum inhibitory concentration of antibiotic, Test Organism 4 (Staphylococcus aureus) [mg/mL]	minimum inhibitory concentration of antibiotic, Test Organism 5 (Staphylococcus aureus) [mg/mL]	minimum inhibitory concentration of antibiotic, Test Organism 9 (Streptococcus faecalis) [mg/mL]	minimum inhibitory concentration of antibiotic, Test Organism 12 [4] [mg/mL]	minimum inhibitory concentration of antibiotic, Test Organism 8 [2]	minimum inhibitory concentration of antibiotic, Test Organism 10 (Streptococcus faecalis) [mg/mL]
7.7	CNC1C(=O)NC2C(=O)NC(C(=O)NC3C(=O)NC4C(=O)NC(C(=O)NC(C(=O)NCCN(C)C)c5cc(O)cc(O)c5-c5cc4ccc5O)C(O)c4cc(Cl)c(c(Cl)c4)Oc4cc3cc(c4O)Oc3ccc(cc3Cl)C2O)c2cc(cc(O)c2Cl)Oc2cc1ccc2O (stereo not shown) [Compound 2g, Ardacin aglycone-(2-N,Ndimethylaminoethyl amide)]	0.2	0.2	0.05	0.05	0.2	0.2	0.1	0.2	0.4	0.1	0.1	0.1	0.2	0.2
7.3	CCCCCCCCCC(=O)NC1C(Oc2c3cc4cc2Oc2c(Cl)cc(cc2Cl)C(O)C2NC(=O)C(NC(=O)C4NC(=O)C4NC(=O)C(NC(=O)C(NC)c5ccc(O)c(c5)Oc5cc(O)c(Cl)c4c5)C(O)c4ccc(c(Cl)c4)O3)c3ccc(O)c(c3)-c3c(OC4OC(CO)C(O)C(O)C4O)cc(O)cc3C(C(=O)NCCO)NC2=O)OC(C(=O)NCCO)C(O)C1O (stereo not shown) [Compound 2l, Ardacin A-di-(2-hydroxyethyl amide)]	1.6	0.8	0.2	–	0.8	0.2	0.2	0.2	0.4	0.4	0.1	0.8	0.4	0.1
7.7	CNCCNC(=O)C1NC(=O)C2NC(=O)C(NC(=O)C3NC(=O)C4NC(=O)C(NC(=O)C(NC)c5ccc(O)c(c5)Oc5cc(O)c(Cl)c4c5)C(O)c4ccc(c(Cl)c4)Oc4cc3cc(c4O)Oc3c(Cl)cc(cc3Cl)C2O)c2ccc(O)c(c2)-c2c(O)cc(O)cc21 (stereo not shown) [Compound 2f, Ardacin aglycone-(2-Nmethylaminoethyl amide)]	0.2	0.1	0.05	0.1	0.2	0.2	0.2	0.1	0.2	0.1	0.1	0.1	0.1	0.1
